Drawing on patent US7335665B2, “Spirocyclic piperidines as MCH1 antagonists and uses thereof” (H - Lundbeck A/S, priority 2003, dated 2008), this text covers Ki for 31 compounds.

T1 sequence (P97639 whole entry): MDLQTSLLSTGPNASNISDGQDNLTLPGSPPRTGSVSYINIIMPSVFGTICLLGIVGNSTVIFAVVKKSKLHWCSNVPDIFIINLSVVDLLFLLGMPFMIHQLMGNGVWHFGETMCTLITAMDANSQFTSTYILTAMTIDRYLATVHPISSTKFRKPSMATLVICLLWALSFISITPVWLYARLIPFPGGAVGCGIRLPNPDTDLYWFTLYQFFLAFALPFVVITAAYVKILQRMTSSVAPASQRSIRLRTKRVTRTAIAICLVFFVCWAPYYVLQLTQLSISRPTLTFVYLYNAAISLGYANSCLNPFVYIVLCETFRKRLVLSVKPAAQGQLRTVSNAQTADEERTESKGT

The first assay has as its target T1, rat MCH1 receptor (Rattus norvegicus, UniProt P97639).
T1 construct: expressed in transfected cells; host or cells: Human embryonic kidney Peak rapid 293 cells (Peakr293), transient, calcium phosphate; membranes
Description: Radioligand binding assay at cloned rat MCH1 receptor ([3H]Compound A displacement). To be noted: KI, cloned rat MCH1, membranes of transfected Peakr293 cells, 0.08 nM [3H]Compound A, 25° C., 90 minutes. Here is the method: For binding assays, pellets of transfected cells are suspended in ice-cold buffer (20 mM Tris.HCl, 5 mM EDTA, pH 7.4) and homogenized by sonication for 7 sec. The cell lysates are centrifuged at 200×g for 5 min at 4° C. The supernatants are then centrifuged at 40,000×g for 20 min at 4° C. The resulting pellets are washed once in the homogenization buffer and suspended in binding buffer (see methods for radioligand binding). Protein concentrations are determined by the method of Bradford (1976) using bovine serum albumin as the standard. Binding assays are usually performed immediately, however it is possible to prepare membranes in batch and store frozen in liquid nitrogen for future use.
Radioligand binding assays for the rat MCH1 receptor were carried out using plasmid pcDNA3.1-rMCH1-f (ATCC Patent Deposit Designation No. PTA-3505). Plasmid pcDNA3.1-rMCH1-f comprises the regulatory elements necessary for expression of DNA in a mammalian cell operatively linked to DNA encoding the rat MCH1 receptor so as to permit expression thereof. Plasmid pcDNA3.1-rMCH1-f was deposited on Jul. 5, 2001, with the American Type Culture Collection (ATCC), 12301 Parklawn Drive, Rockville, Md. 20852, U.S.A. under the provisions of the Budapest Treaty for the International Recognition of the Deposit of Microorganisms for the Purposes of Patent Procedure and was accorded ATCC Patent Deposit Designation No. PTA-3505.
Human embryonic kidney Peak rapid 293 cells (Peakr293 cells) were transiently transfected with DNA encoding the MCH1 receptor utilizing the calcium phosphate method and cell membranes were prepared as described above. Binding experiments with membranes from Peakr293 cells transfected with the rat MCH1 receptor were performed with 0.08 nM [^3H]Compound A (custom labeled by Amersham) (the synthesis of Compound A is described in detail below) using an incubation buffer consisting of 50 mM Tris pH 7.4, 10 mM MgCl2, 0.16 mM PMSF, 1 mM 1,10 phenantroline and 0.2% BSA. Binding was performed at 25° C. for 90 minutes. Incubations were terminated by rapid vacuum filtration over GF/C glass fiber filters, presoaked in 5% PEI using […] Tris pH 7.4 as wash buffer. In all experiments, nonspecific binding is defined using […] Compound A.
The compounds described above were assayed using cloned rat MCH1.
As to `S=C(NCCCCN1CCC2(CCc3ccccc32)CC1)Nc1cccc2ccccc12` [Example 23, (NAPHTHYLAMINO)[(4-(SPIRO[INDANE-1,4′-PIPERIDINE]-10-YL-BUTYL)AMINO]METHANE-1-THIONE], the inhibition constant Ki (as a rule, the equilibrium dissociation constant of an inhibitor or competing ligand from its target) is 0.818 µM.
On to `O=C(NCCCN1CCC2(CC1)OCc1ccccc12)C(c1ccc(F)cc1)c1ccc(F)cc1` [Example 84, 2,2-BIS(4-FLUOROPHENYL)-N-(3-(SPIRO[1,3-DIHYDROISOBENZOFURAN-1,4′-PIPERIDINE]-10-YL)PROPYL)ACETAMIDE], for which the Ki turned out to be 0.0049 µM.
The same measure, in the same setting: in the case of `O=C(NCCCCCCN1CCC2(CCc3ccccc32)CC1)c1ccc(Oc2cc(Cl)cc(Cl)c2)o1` [Example 16, [5-(3,5-DICHLOROPHENOXY)(2-FURYL)]-N-(6-(SPIRO[INDANE-1,4′-PIPERIDINE]-10-YL)HEXYL)CARBOXAMIDE] it was 0.45 µM; in that of `O=C1OC2(CCN(CCCNC(=O)C(c3ccc(Cl)cc3)c3ccc(Cl)cc3)CC2)c2ccccc21` [Example 94, 2,2-BIS(4-CHLOROPHENYL)-N-[3-(1-OXOSPIRO[3-HYDROISOBENZOFURAN-3,4′-PIPERIDINE]-10-YL)PROPYL]ACETAMIDE], 0.6 µM; in that of `O=C(NCCCCN1CCC2(CCc3ccccc32)CC1)c1ccc(Oc2cc(Cl)cc(Cl)c2)o1` [Example 15, [5-(3,5-dichlorophenoxy)(2-furyl)]-N-(4-(SPIRO[indane-1,4′-piperidine]-10-YL)BUTYL)carboxamide], 0.434 µM.
`O=C(NCCCN1CCC2(CCc3ccccc32)CC1)C1(c2ccc(F)cc2)CCCC1` [Example 54, [(4-FLUOROPHENYL)CYCLOPENTYL]-N-(3-(SPIRO[INDANE-1,4′-PIPERIDINE]-10-YL)PROPYL)CARBOXAMIDE]: the inhibitory constant (Ki) was 0.208 µM.
`O=C(NCCCCN1CCC2(CCc3ccccc32)CC1)Nc1cc(Cl)cc(Cl)c1` [Example 26, N-(3,5-DICHLOROPHENYL)[(4-SPIRO[INDANE-1,4′-PIPERIDINE]-10-YLBUTYL)AMINO]CARBOXAMIDE] registered a Ki of 0.512 µM.
`O=C(NCCCN1CCC2(CC1)OCc1ccccc12)C(c1ccccc1)c1ccccc1` [Example 76, 2,2-DIPHENYL-N-(3-(SPIRO[1,3-DIHYDROISOBENZOFURAN-1,4′-PIPERIDINE]-10-YL)PROPYL)ACETAMIDE] displayed an inhibitory constant (Ki) of 0.0206 µM.
In turn, `O=C(NCCN1CCC2(CCc3ccccc32)CC1)c1cccc2ccccc12` [Example 42, NAPHTHYL-N-(2-(SPIRO[INDANE-1,4′-PIPERIDINE]-10-YLETHYL)CARBOXAMIDE] showed a Ki of 0.545 µM.
Same read-out and setting: in the case of `CC(C)(C(=O)NCCCN1CCC2(C=Cc3ccccc32)CC1)c1ccc(Cl)cc1` [Example 65, 2-(4-CHLOROPHENYL)-2-METHYL-N-(3-(SPIRO[INDENE-1,4′-PIPERIDINE]-10-YL)PROPYL)PROPANAMIDE] it was 0.078 µM; in that of `CC(C(=O)NCCCN1CCC2(CC1)OCc1ccccc12)(c1ccccc1)c1ccccc1` [Example 88, 2,2-DIPHENYL-N-(3-(SPIRO[1,3-DIHYDROISOBENZOFURAN-1,4′-PIPERIDINE]-10-YL)PROPYL)PROPANAMIDE], 0.144 µM; in that of `O=C(Cc1ccc(F)cc1)NCCCCN1CCC2(CCc3ccccc32)CC1` [Example 9, 2-(4-FLUOROPHENYL)-N-(4-(SPIRO[INDANE-1,4′-PIPERIDINE]-10-YL)BUTYL)ACETAMIDE], 0.691 µM.
Same read-out and setting: under `O=C(NCCCCN1CCC2(CCc3ccccc32)CC1)c1sc2ccccc2c1Cl` [Example 34, (3-CHLOROBENZO[B]THIOPHEN-2-YL)-N-(4-(SPIRO[INDANE-1,4′-PIPERIDINE]-10-YL)BUTYL)CARBOXAMIDE] stands 0.883 µM.
With `O=C(NCCCN1CCC2(CC1)OCc1ccccc12)C(c1ccccc1)(c1ccccc1)c1ccccc1` [Example 77, 2,2,2-TRIPHENYL-N-(3-(SPIRO[1,3-DIHYDROISOBENZOFURAN-1,4′-PIPERIDINE]-10-YL)PROPYL)ACETAMIDE], the inhibition constant (Ki) amounted to 0.151 µM.

Staying with this assay, now noted: cloned rat MCH1, membranes of transfected Peakr293 cells, 0.08 nM [3H]Compound A, 25° C., 90 minutes; read-out: KI.
Regarding `O=C(NCCCN1CCC2(CCc3ccccc32)CC1)C1(c2ccc(Cl)cc2)CCCCC1` [Example 53, 1-[(4-CHLOROPHENYL)CYCLOHEXYL]-N-(3-(SPIRO[INDANE-1,4′-PIPERIDINE]-10-YL)PROPYL)CARBOXAMIDE], the Ki stood at 0.0569 µM.
Still for that read-out and setting: in the case of `O=C(NCCCN1CCC2(CC1)OCc1ccc(Cl)cc12)C(c1ccccc1)c1ccccc1` [Example 100, N-[3-(5-CHLOROSPIRO[1,3-DIHYDROISOBENZOFURAN-3,4′-PIPERIDINE]-10-YL)PROPYL]-2,2-DIPHENYLACETAMIDE] it was 0.0026 µM.
With `O=C(NCCCCN1CCC2(CCc3ccccc32)CC1)c1cc(F)cc(F)c1` [Example 13, (3,5-DIFLUOROPHENYL)-N-(4-(SPIRO[INDANE-1,4′-PIPERIDINE]-10-YL)BUTYL)CARBOXAMIDE], the Ki was determined as 0.27 µM.
As for `O=C(NCCN1CCC2(CCc3ccccc32)CC1)C(c1ccccc1)c1ccccc1` [Example 41, 2,2-DIPHENYL-N-(2-(SPIRO[INDANE-1,4′-PIPERIDINE]-10-YLETHYL) ACETAMIDE], the Ki came out at 0.103 µM.
On to `O=C(NCCCN1CCC2(CC1)C(=O)CCc1ccccc12)C(c1ccccc1)c1ccccc1` [Example 98, N-[3-(2-OXOSPIRO[1,3,4-TRIHYDRONAPHTHALENE-1,4′-PIPERIDINE]-11-YL)PROPYL]-2,2-DIPHENYLACETAMIDE], for which the Ki was 0.682 µM.
On to `O=C(NCCCN1CCC2(CCc3ccccc32)CC1)C(c1ccc(F)cc1)c1ccc(F)cc1` [Example 57, 2,2-BIS(4-FLUOROPHENYL)-N-(3-(SPIRO[INDANE-1,4′-PIPERIDINE]-10-YL)PROPYL)ACETAMIDE], for which the inhibition constant (Ki) is 0.0042 µM.
As to `O=C(NCCCN1CCC2(CC1)Cc1ccccc1C2=O)C(c1ccc(Cl)cc1)c1ccc(Cl)cc1` [Example 91, 2,2-BIS(4-CHLOROPHENYL)-N-[3-(1-OXOSPIRO[INDANE-2,4′-PIPERIDINE]-10-YL)PROPYL]ACETAMIDE], the Ki was 0.381 µM.
On the same count and under the same terms, in the case of `CC(C(=O)NCCCN1CCC2(CCc3ccccc32)CC1)(c1ccccc1)c1ccccc1` [Example 47, 2,2-DIPHENYL-N-(3-(SPIRO[INDANE-1,4′-PIPERIDINE]-10-YL)PROPYL)PROPANAMIDE] it was 0.154 µM; in that of `O=C(NCCCN1CCC2(C=Cc3ccccc32)CC1)C1(c2ccc(Cl)cc2)CCCCC1` [Example 71, [(4-CHLOROPHENYL)CYCLOHEXYL]-N-(3-(SPIRO[INDENE-1,4′-PIPERIDINE]-10-YL)PROPYL)CARBOXAMIDE], 0.071 µM; in that of `O=C(NCCCCCCN1CCC2(CCc3ccccc32)CC1)c1cccnc1Oc1ccc(Cl)cc1` [Example 33, [2-(4-CHLOROPHENOXY)(3-PYRIDYL)]-N-(6-(SPIRO[INDANE-1,4′-PIPERIDINE]-10-YL)HEXYL)CARBOXAMIDE], 0.431 µM.
On the same count and under the same terms, under `O=C(NCCCCCN1CCC2(CCc3ccccc32)CC1)Nc1cc(Cl)cc(Cl)c1` [Example 25, N-(3,5-DICHLOROPHENYL)[(5-(SPIRO[INDANE-1,4′-PIPERIDINE]-10-YL)PENTYL)AMINO]CARBOXAMIDE] stands 0.542 µM; under `O=C(NCCCN1CCC2(C=Cc3ccccc32)CC1)C1(c2ccc(Cl)cc2)CCC1` [Example 74, [(4-CHLOROPHENYL)CYCLOBUTYL]-N-(3-(SPIRO[INDENE-1,4′-PIPERIDINE]-10-YL)PROPYL)CARBOXAMIDE], 0.185 µM.
In the case of `O=C(NCCN1CCC2(CCc3ccccc32)CC1)c1ccc(F)c(F)c1` [Example 45, (3,4-DIFLUOROPHENYL)-N-(2-(SPIRO[INDANE-1,4′-PIPERIDINE]-10-YLETHYL)CARBOXAMIDE], the Ki is 0.802 µM.
For `O=C(NCCCN1CCC2(C=Cc3ccccc32)CC1)C(c1ccc(Cl)cc1)c1ccc(Cl)cc1` [Example 68, 2,2-BIS(4-CHLOROPHENYL)-N-(3-(SPIRO[INDENE-1,4′-PIPERIDINE]-10-YL)PROPYL)ACETAMIDE], the Ki came out at 0.0058 µM.
Consider `O=C1OC2(CCN(CCCNC(=O)C(c3ccc(F)cc3)c3ccc(F)cc3)CC2)c2ccccc21` [Example 95, 2,2-BIS(4-FLUOROPHENYL)-N-[3-(1-OXOSPIRO[3-HYDROISOBENZOFURAN-3,4′-PIPERIDINE]-10-YL)PROPYL]ACETAMIDE], for which the inhibition constant Ki came out at 0.0846 µM.
For the compound `O=C(NCCCCN1CCC2(CCc3ccccc32)CC1)c1cccc(Cl)c1` [Example 18, (3-CHLOROPHENYL)-N-(4-(SPIRO[INDANE-1,4′-PIPERIDINE]-10-YL)BUTYL)CARBOXAMIDE], the Ki came to 0.342 µM.
`O=C(NCCCN1CCC2(CCc3ccccc32)CC1)C1(c2ccc(Cl)cc2)CC1` [Example 58, [1-(4-CHLOROPHENYL)CYCLOPROPYL]-N-(3-(SPIRO[INDANE-1,4′-PIPERIDINE]-10-YL)PROPYL)CARBOXAMIDE]: the Ki stood at 0.15 µM.
